Source: patent publication US20030129629A1, “Methods and compositions for the identification, assessment, prevention, and therapy of human cancers” (Millennium Pharmaceuticals, Inc., priority 2000, published 2003)
Read-outs that look alike come from different tables or passages of the source.

Tested on: 60 cancer cell lines (NCI 60 cancer cell line series)
Assay: NCI-DTP in vitro cancer screen, sulforhodamine B (SRB) growth inhibition, 48 hour exposure
Assay type: cell-based, human
Procedure: Cancer Cell Line Preparation. Sixty cancer cell lines were obtained from the National Cancer Institute Developmental Therapeutics Program (NCI-DTP). Procedures for growing cells and testing compounds have been described previously (Scudiero et al., Cancer Res. 1988, 48:4827-4833; Stinson et al., Anticancer Res.; Myers et al., Electrophoresis 1997, 18:647-653). Cells are plated on day 0 at a density individualized for each cell line so that they will generally be sub-confluent at the end of the assay period. On day 1, a compound is added in the format for a duplicate-well, 5-dose, ten-fold interval dose response study.
No-drug, no-cell and no-growth controls are included. On day 3 the cells are processed for staining with sulforhodamine B (SRB), which reflects the amount of cell mass present at the end of a 48 hour exposure to the test agent. From dose response curves based on the SRB data, various parameters can be determined. […] More precisely, the quantity used in the calculation to be described is the potency measure −log{GI50}.
Activity database (A). […] This subset of compounds was selected from the larger 23,000 compound database available from the DTP. The compounds were selected on the basis of their known mechanism of action and chemical structure. The average potency −log{GI50} was extracted from the comma-delimited text files available through the Web at http://www.nci.nih.gov/intra/lmp/jnwbio.html. Subsequently, these −log{GI50} values were inspected manually and classified as indicating either Low, Medium or High sensitivity to each compound.

N[C@@H](Cc1ccc(N(CCCl)CCCl)cc1)C(=O)O [Melphalan]
classification of cell line as Low(1), Medium(2), High(3) sensitivity to compound: 2
classification of cell line as Low(1), Medium(2), High(3) sensitivity to compound (Breast BT-549 CL5013): 2
classification of cell line as Low(1), Medium(2), High(3) sensitivity to compound (Breast HS-578T CL5006): 2
classification of cell line as Low(1), Medium(2), High(3) sensitivity to compound (Breast MCF7(I) CL5001): 3
classification of cell line as Low(1), Medium(2), High(3) sensitivity to compound (Breast MCF7/ADRr CL5002): 2
classification of cell line as Low(1), Medium(2), High(3) sensitivity to compound (Breast MDA-MB-231 CL5005): 2
classification of cell line as Low(1), Medium(2), High(3) sensitivity to compound (Breast MDA-MB-435 CL5011): 2
classification of cell line as Low(1), Medium(2), High(3) sensitivity to compound (Breast MDA-N CL5012): 2
classification of cell line as Low(1), Medium(2), High(3) sensitivity to compound (Breast T-47D CL5014): 2
classification of cell line as Low(1), Medium(2), High(3) sensitivity to compound (Colon COLO-250 CL4010): 2
classification of cell line as Low(1), Medium(2), High(3) sensitivity to compound (Colon HCC-2998 CL4002): 2
classification of cell line as Low(1), Medium(2), High(3) sensitivity to compound (Colon HCT-15 CL4015): 2
classification of cell line as Low(1), Medium(2), High(3) sensitivity to compound (Colon HCT-116 CL4003): 2
classification of cell line as Low(1), Medium(2), High(3) sensitivity to compound (Colon HT29(I) CL4001): 1
classification of cell line as Low(1), Medium(2), High(3) sensitivity to compound (Colon KM12 CL4017): 1
classification of cell line as Low(1), Medium(2), High(3) sensitivity to compound (Colon SW-620 CL4009): 2
classification of cell line as Low(1), Medium(2), High(3) sensitivity to compound (Leukemia CCRF-CEM(I) CL7003): 3
classification of cell line as Low(1), Medium(2), High(3) sensitivity to compound (Leukemia HL-60(I) CL7008): 3
classification of cell line as Low(1), Medium(2), High(3) sensitivity to compound (Leukemia K562(I) CL7005): 2
classification of cell line as Low(1), Medium(2), High(3) sensitivity to compound (Leukemia MOLT-4 CL7006): 3
classification of cell line as Low(1), Medium(2), High(3) sensitivity to compound (Leukemia RPMI-8226(I) CL7010): 2
classification of cell line as Low(1), Medium(2), High(3) sensitivity to compound (Leukemia SR CL7019): 3
classification of cell line as Low(1), Medium(2), High(3) sensitivity to compound (Melanoma LOX IMVI CL10001): 2
classification of cell line as Low(1), Medium(2), High(3) sensitivity to compound (Melanoma M14 CL10014): 2
classification of cell line as Low(1), Medium(2), High(3) sensitivity to compound (Melanoma MALME-3M CL10002): 2
classification of cell line as Low(1), Medium(2), High(3) sensitivity to compound (Melanoma SK-MEL-2 CL10005): 2
classification of cell line as Low(1), Medium(2), High(3) sensitivity to compound (Melanoma SK-MEL-5 CL10007): 2
classification of cell line as Low(1), Medium(2), High(3) sensitivity to compound (Melanoma SK-MEL-28 CL10008): 2
classification of cell line as Low(1), Medium(2), High(3) sensitivity to compound (Melanoma UACC-62 CL10020): 3
classification of cell line as Low(1), Medium(2), High(3) sensitivity to compound (Melanoma UACC-257 CL10021): 2
classification of cell line as Low(1), Medium(2), High(3) sensitivity to compound (NSCLC A549/ATCC CL1004): 2
classification of cell line as Low(1), Medium(2), High(3) sensitivity to compound (NSCLC EKVX CL1008): 2
classification of cell line as Low(1), Medium(2), High(3) sensitivity to compound (NSCLC HOP-62 CL1026): 2
classification of cell line as Low(1), Medium(2), High(3) sensitivity to compound (NSCLC HOP-92 CL1029): 2
sensitivity classification Low(1)/Medium(2)/High(3) (NSCLC NCI-H23(I) CL1001): 2
classification of cell line as Low(1), Medium(2), High(3) sensitivity to compound (NSCLC NCI-H226 CL1013): 2
sensitivity classification Low(1)/Medium(2)/High(3) (NSCLC NCI-H332M CL1017): 1
sensitivity classification Low(1)/Medium(2)/High(3) (NSCLC NCI-H460 CL1021): 3
sensitivity classification Low(1)/Medium(2)/High(3) (NSCLC NCI-H522 CL1003): 2
sensitivity classification Low(1)/Medium(2)/High(3) (Ovarian IGROV1 CL6010): 2
sensitivity classification Low(1)/Medium(2)/High(3) (Ovarian OVCAR-3 CL6001): 2
sensitivity classification Low(1)/Medium(2)/High(3) (Ovarian OVCAR-4 CL6002): 2
sensitivity classification Low(1)/Medium(2)/High(3) (Ovarian OVCAR-5 CL6003): 2
sensitivity classification Low(1)/Medium(2)/High(3) (Ovarian OVCAR-8 CL6005): 2
sensitivity classification Low(1)/Medium(2)/High(3) (Ovarian SK-OV-3 CL6011): 2
sensitivity classification Low(1)/Medium(2)/High(3) (Prostate DU-145 CL11003): 2
sensitivity classification Low(1)/Medium(2)/High(3) (Prostate PC-3(I) CL11001): 2
sensitivity classification Low(1)/Medium(2)/High(3) (Renal 786-0 CL9018): 2
sensitivity classification Low(1)/Medium(2)/High(3) (Renal A498 CL9013): 1
sensitivity classification Low(1)/Medium(2)/High(3) (Renal ACHN CL9023): 3
sensitivity classification Low(1)/Medium(2)/High(3) (Renal CAKI-1 CL9015): 3
sensitivity classification Low(1)/Medium(2)/High(3) (Renal RXF-393 CL9016): 2
sensitivity classification Low(1)/Medium(2)/High(3) (Renal SN12C CL9008): 2
sensitivity classification Low(1)/Medium(2)/High(3) (Renal TK10 CL9024): 1
sensitivity classification Low(1)/Medium(2)/High(3) (Renal UO-31 CL9004): 2
